Where two headings read alike, the source gives them in different places. Numbered stars: 1 amine (or outer) side, 2 acyl side, 3 side chain; on linkers, the order of the positions; unused ones are H or OH. Bridge positions count the residues as written; N and C are the ends. Square brackets hold non-standard residues; d marks the D form. Peptide text beside a SMILES is read from it. * marks the point of attachment. Trp(βS-Me,7-OMe) = COc1cccc2c([C@H](C)[C@H](N)C(=O)O)c[nH]c12; Trp(1-CH2COOH) = N[C@@H](Cc1cn(CC(=O)O)c2ccccc12)C(=O)O; Phe(4-SO2NH2) = N[C@@H](Cc1ccc(S(N)(=O)=O)cc1)C(=O)O; Phe(2-F,4-COOH) = N[C@@H](Cc1ccc(C(=O)O)cc1F)C(=O)O; Trp(7-CN) = N#Cc1cccc2c(C[C@H](N)C(=O)O)c[nH]c12; Trp(7-Cl) = N[C@@H](Cc1c[nH]c2c(Cl)cccc12)C(=O)O; Ala(pyrimidin-5-yl) = N[C@@H](Cc1cncnc1)C(=O)O; Phe(3-CONH2) = NC(=O)c1cccc(C[C@H](N)C(=O)O)c1; Phe(4-CONH2) = NC(=O)c1ccc(C[C@H](N)C(=O)O)cc1; Phe(4-COOH) = N[C@@H](Cc1ccc(C(=O)O)cc1)C(=O)O; Trp(7-aza) = N[C@@H](Cc1c[nH]c2ncccc12)C(=O)O; dPro(trans-4-F) = O=C(O)[C@H]1C[C@H](F)CN1; dPro(4S-NH2) = N[C@@H]1CN[C@@H](C(=O)O)C1; Pip(5R-OH) = O=C(O)[C@@H]1CC[C@@H](O)CN1; X1 = O=C([C@@H]1CC[C@H](N[*:1])C1)[*:2]; NMeT = CN[C@H](C(=O)O)[C@@H](C)O; Pip(4-aza) = O=C(O)[C@@H]1CNCCN1; 4Pal = N[C@@H](Cc1ccncc1)C(=O)O; NMeE = CN[C@@H](CCC(=O)O)C(=O)O; dHyp = O=C(O)[C@H]1C[C@H](O)CN1; Cit = NC(=O)NCCC[C@H](N)C(=O)O; Gly(N-CH2CH2OH) = O=C(O)CNCCO; Pip = O=C(O)[C@@H]1CCCCN1; αMeS = C[C@](N)(CO)C(=O)O; Carboxymethyl = O=C(O)C*; Nle = CCCC[C@H](N)C(=O)O; Sar = CNCC(=O)O
Target: T1, human soluble TNFR1 (sTNFR1) (Homo sapiens, UniProt P19438)
T1 construct: made in house; host or cells: Sf21 (baculovirus)
T1 sequence (P19438 with tags, fused parts or gaps): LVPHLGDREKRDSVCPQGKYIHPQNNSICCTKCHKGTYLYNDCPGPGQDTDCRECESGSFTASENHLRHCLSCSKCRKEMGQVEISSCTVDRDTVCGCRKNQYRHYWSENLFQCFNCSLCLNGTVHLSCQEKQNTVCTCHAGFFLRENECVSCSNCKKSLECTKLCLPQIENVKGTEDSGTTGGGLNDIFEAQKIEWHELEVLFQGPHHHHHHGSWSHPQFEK
Assay: Human sTNFR1-peptide displacement assay (LanthaScreen Eu TR-FRET binding assay)
Summary of the method: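 Readout is the 665/615 nm TR-FRET ratio (Eu anti-His donor, streptavidin-Alexa647 acceptor), normalized to DMSO and saturating displacer, fit by Morrison-based five-parameter logistic for Kd^app. His-tagged sTNFR1 (1-211) prebound to 100 nM biotinylated peptide SEQ ID NO.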

[1] = displacement of biotinylated peptide SEQ ID NO. 1 from sTNFR1, 20 point titration, 5-parameter fit based on Morrison equation (tight binding), read-out: TR-FRET Kd^app

Work on CCCC[C@@H]1NC(=O)[C@@H]2CC[C@@H](C2)NC(=O)[C@H]([C@@H](C)c2c[nH]c3c(OC)cccc23)NC(=O)CN(C)C(=O)[C@H](Cc2ccc(C(=O)O)cc2F)NC(=O)[C@H](Cc2ccc(S(N)(=O)=O)cc2)NC(=O)[C@](C)(CO)NC(=O)[C@H](Cc2c[nH]c3c(C#N)cccc23)NC(=O)[C@H](Cc2ccc(C(=O)O)cc2F)NC(=O)[C@H](CC(N)=O)NC(=O)[C@H]2C[C@H](O)CN2C(=O)[C@H](Cc2c[nH]c3ncccc23)NC(=O)[C@@H]2CC[C@@H](O)CN2C(=O)[C@H](Cc2cncnc2)NC1=O [SEQ ID NO. 51] (cyclo(N[Phe(2-F,4-COOH)][Trp(7-CN)][αMeS][Phe(4-SO2NH2)][Phe(2-F,4-COOH)][Sar][Trp(βS-Me,7-OMe)][X1][Nle][Ala(pyrimidin-5-yl)][Pip(5R-OH)][Trp(7-aza)][dHyp])) yielded a Kd [1] of 0.05 nM.

COc1cccc2c([C@H](C)[C@@H]3NC(=O)CN(C)C(=O)[C@H](Cc4cccc(C(N)=O)c4)NC(=O)[C@H](Cc4ccc(C(=O)O)cc4)NC(=O)[C@](C)(CO)NC(=O)[C@H](Cc4c[nH]c5c(Cl)cccc45)NC(=O)[C@H](Cc4ccncc4)NC(=O)[C@H](CC(N)=O)NC(=O)[C@H]4C[C@H](O)CN4C(=O)[C@H](Cc4c[nH]c5ccccc45)NC(=O)[C@@H]4CC[C@@H](O)CN4C(=O)[C@H](Cc4ccncc4)NC(=O)[C@H](CCCNC(N)=O)NC(=O)[C@@H]4CC[C@@H](C4)NC3=O)c[nH]c12 [SEQ ID NO. 54] (cyclo([4Pal][Trp(7-Cl)][αMeS][Phe(4-COOH)][Phe(3-CONH2)][Sar][Trp(βS-Me,7-OMe)][X1][Cit][4Pal][Pip(5R-OH)]W[dHyp]N)) showed a Kd of 0.24 nM.

With CCCC[C@@H]1NC(=O)[C@@H]2CC[C@@H](C2)NC(=O)[C@H]([C@@H](C)c2c[nH]c3c(OC)cccc23)NC(=O)CN(C)C(=O)[C@H](Cc2ccc(O)cc2)NC(=O)[C@H](Cc2ccc(C(=O)O)cc2)NC(=O)[C@](C)(CO)NC(=O)[C@H](Cc2c[nH]c3c(Cl)cccc23)NC(=O)[C@H](Cc2ccncc2)NC(=O)[C@H](CC(N)=O)NC(=O)CN(CCO)C(=O)[C@H](Cc2c[nH]c3ccccc23)NC(=O)[C@@H]2CNCCN2C(=O)[C@H](Cc2ccncc2)NC1=O [SEQ ID NO. 72] (cyclo([4Pal][Trp(7-Cl)][αMeS][Phe(4-COOH)]Y[Sar][Trp(βS-Me,7-OMe)][X1][Nle][4Pal][Pip(4-aza)]W[Gly(N-CH2CH2OH)]N)) the Kd was 0.09 nM.

CCCC[C@@H]1NC(=O)[C@@H]2CC[C@@H](C2)NC(=O)[C@H]([C@@H](C)c2c[nH]c3c(OC)cccc23)NC(=O)CN(C)C(=O)[C@H](Cc2ccc(C(=O)O)cc2F)NC(=O)[C@H](Cc2ccc(C(N)=O)cc2)NC(=O)[C@](C)(CO)NC(=O)[C@H](Cc2c[nH]c3c(Cl)cccc23)NC(=O)[C@H](Cc2ccc(C(=O)O)cc2F)NC(=O)[C@H](CC(N)=O)NC(=O)[C@H]2C[C@H](O)CN2C(=O)[C@H](Cc2c[nH]c3ccccc23)NC(=O)[C@@H]2CC[C@@H](O)CN2C(=O)[C@H](Cc2ccncc2)NC1=O [SEQ ID NO. 41] (cyclo([4Pal][Pip(5R-OH)]W[dHyp]N[Phe(2-F,4-COOH)][Trp(7-Cl)][αMeS][Phe(4-CONH2)][Phe(2-F,4-COOH)][Sar][Trp(βS-Me,7-OMe)][X1][Nle])) showed a Kd of 0.07 nM.

CCCC[C@@H]1NC(=O)[C@@H]2CC[C@@H](C2)NC(=O)[C@H]([C@@H](C)c2c[nH]c3c(OC)cccc23)NC(=O)CN(C)C(=O)[C@H](Cc2ccc(OCC(=O)O)cc2)NC(=O)[C@H](Cc2ccc(S(N)(=O)=O)cc2)NC(=O)[C@](C)(CO)NC(=O)[C@H](Cc2c[nH]c3c(C#N)cccc23)NC(=O)[C@H](Cc2ccc(OCC(=O)O)cc2)NC(=O)[C@H](CC(N)=O)NC(=O)[C@H]2C[C@H](N)CN2C(=O)[C@H](Cc2cn(CC(=O)O)c3ccccc23)NC(=O)[C@@H]2CC[C@@H](O)CN2C(=O)[C@H](Cc2ccncc2)NC1=O [SEQ ID NO. 18] (cyclo([4Pal][Pip(5R-OH)][Trp(1-CH2COOH)][dPro(4S-NH2)]NY(Carboxymethyl)[Trp(7-CN)][αMeS][Phe(4-SO2NH2)]Y(Carboxymethyl)[Sar][Trp(βS-Me,7-OMe)][X1][Nle])) gave a Kd [1] of 0.08 nM.

For CCCC[C@@H]1NC(=O)[C@@H]2CC[C@@H](C2)NC(=O)[C@H]([C@@H](C)c2c[nH]c3c(OC)cccc23)NC(=O)CN(C)C(=O)[C@H](Cc2cccc(C(N)=O)c2)NC(=O)[C@H](Cc2ccc(C(=O)O)cc2)NC(=O)[C@](C)(CO)NC(=O)[C@H](Cc2c[nH]c3c(Cl)cccc23)NC(=O)[C@H](Cc2ccncc2)NC(=O)[C@H](CC(N)=O)NC(=O)[C@H](CCC(=O)O)N(C)C(=O)[C@H](Cc2c[nH]c3ccccc23)NC(=O)[C@@H]2CCCCN2C(=O)[C@H](Cc2ccncc2)NC1=O [SEQ ID NO. 221] (cyclo([4Pal][Pip]W[NMeE]N[4Pal][Trp(7-Cl)][αMeS][Phe(4-COOH)][Phe(3-CONH2)][Sar][Trp(βS-Me,7-OMe)][X1][Nle])), the Kd [1] was 0.31 nM.

Work on CCCC[C@@H]1NC(=O)[C@@H]2CC[C@@H](C2)NC(=O)[C@H]([C@@H](C)c2c[nH]c3c(OC)cccc23)NC(=O)CN(C)C(=O)[C@H](Cc2cccc(C(N)=O)c2)NC(=O)[C@H](Cc2ccc(C(N)=O)cc2)NC(=O)[C@](C)(CO)NC(=O)[C@H](Cc2c[nH]c3c(C#N)cccc23)NC(=O)[C@H](Cc2ccc(C(=O)O)cc2)NC(=O)[C@H](CC(N)=O)NC(=O)[C@H]2C[C@H](F)CN2C(=O)[C@H](Cc2c[nH]c3ccccc23)NC(=O)[C@@H]2CC[C@@H](O)CN2C(=O)[C@H](Cc2ccncc2)NC1=O [SEQ ID NO. 21] (cyclo([4Pal][Pip(5R-OH)]W[dPro(trans-4-F)]N[Phe(4-COOH)][Trp(7-CN)][αMeS][Phe(4-CONH2)][Phe(3-CONH2)][Sar][Trp(βS-Me,7-OMe)][X1][Nle])) yielded a Kd of 0.04 nM.

Molecule CCCC[C@@H]1NC(=O)CSC[C@@H](C(N)=O)NC(=O)[C@H]([C@@H](C)c2c[nH]c3c(OC)cccc23)NC(=O)CN(C)C(=O)[C@H](Cc2ccc(O)cc2)NC(=O)[C@H](Cc2ccc(C(=O)O)cc2)NC(=O)[C@](C)(CO)NC(=O)[C@H](Cc2c[nH]c3c(Cl)cccc23)NC(=O)[C@H](Cc2ccncc2)NC(=O)[C@H](CC(N)=O)NC(=O)[C@H](CCC(=O)O)N(C)C(=O)[C@H](Cc2c[nH]c3ncccc23)NC(=O)[C@H]([C@@H](C)O)N(C)C(=O)[C@H](Cc2ccncc2)NC1=O [SEQ ID NO. 29] ({CH2CO}-[Nle][4Pal][NMeT][Trp(7-aza)][NMeE]N[4Pal][Trp(7-Cl)][αMeS][Phe(4-COOH)]Y[Sar][Trp(βS-Me,7-OMe)]C-NH2; thioether N-14) has a Kd of 0.65 nM.

Work on CCCC[C@@H]1NC(=O)[C@@H]2CC[C@@H](C2)NC(=O)[C@H]([C@@H](C)c2c[nH]c3c(OC)cccc23)NC(=O)CN(C)C(=O)[C@H](Cc2ccc(C(N)=O)cc2)NC(=O)[C@H](Cc2ccc(C(N)=O)cc2)NC(=O)[C@](C)(CO)NC(=O)[C@H](Cc2c[nH]c3c(C#N)cccc23)NC(=O)[C@H](Cc2ccc(C(=O)O)cc2)NC(=O)[C@H](CC(N)=O)NC(=O)[C@H]2C[C@H](O)CN2C(=O)[C@H](Cc2c[nH]c3ncccc23)NC(=O)[C@@H]2CC[C@@H](O)CN2C(=O)[C@H](Cc2ccncc2)NC1=O [SEQ ID NO. 254] (cyclo([4Pal][Pip(5R-OH)][Trp(7-aza)][dHyp]N[Phe(4-COOH)][Trp(7-CN)][αMeS][Phe(4-CONH2)][Phe(4-CONH2)][Sar][Trp(βS-Me,7-OMe)][X1][Nle])) yielded a Kd [1] of 0.06 nM.
